Reference: patent US20070020704A1, “Diaryl ureas with kinase inhibiting activity” (priority 2003, published 2007)

How the values were obtained:
[1] = test system: Raf Pathway phospho-ERK, Breast; assay: Cellular assay Raf pathway phospho-ERK, breast (Bio-Plex phospho-ERK1/2 immunoassay); assay type: cell-based; settings: Homo sapiens, inhibition of target phosphorylation in whole cells by 50%
Method: A 96-well phospho-ERK (PERK) immunoassay, using laser flow cytometry platform has been established to measure inhibition of basal pERK in cell lines. MDA-MB-231 cells were plated at 50,000 cells per well in 96-well microtitre plates in complete growth media. For effects of test compounds on basal pERK1/2 inhibition, the next day after plating, MDA-MB-231 cells were transferred to DMEM with 0.1% BSA and incubated with test compounds diluted 1:3 to a final concentration of 3 μM to 12 nM in 0.1% DMSO. Cells were incubated with test compounds for 2 h, washed, and lysed in Bio-Plex whole cell lysis buffer A. Samples are diluted with buffer B 1:1 (v/v) and directly transferred to assay plate or frozen at −80 C degrees until processed. 50 μL of diluted MDA-MB-231 cell lysates were incubated with about 2000 of 5 micron Bio-Plex beads conjugated with an anti-ERK1/2 antibody overnight on a shaker at room temperature. The next day, biotinylated phospho-ERK1/2 sandwich immunoassay was performed, beads are washed 3 times during each incubation and then 50 μL of PE-strepavidin was used as a developing reagent. The relative fluorescence units of pERK1/2 were detected by counting 25 beads with Bio-Plex flow cell (probe) at high sensitivity. The IC50 was calculated by taking untreated cells as maximum and no cells (beads only) as background.

[2] = test system: Raf Pathway phospho-ERK, Melanoma; assay: Cellular assay Raf pathway phospho-ERK, melanoma; assay type: cell-based
c-KIT phosphor-AKT = assay: Cellular assay c-KIT pathway phosphor-AKT; assay type: cell-based
[3] = test system: MIA PaCa-2 pancreatic (mutant k-Ras) xenograft; assay: Tumor treatment, MIA PaCa-2 xenograft model; assay type: in vivo, CB17 SCID female mice; settings: p.o., qd×14
Method: (§1) All treatments were administered p.o. on a qd×14 schedule. […] Similarly, the growth of MIA PaCa-2 tumors was inhibited 44%, 66%, and 73% at dosages of 10, 30, and 100 mg/kg/dose, respectively. The growth of NCI-H460 tumors was inhibited 27% and 56% at dosages of 10 and 30 mg/kg/dose of this Raf kinase inhibitor. The SK-OV-3 model was slightly more sensitive, generating 45%-81% tumor growth inhibitions at dosages of 3 to 100 mg/kg/dose.
HCT 116, SK-OV-3, and MIA PaCa-2 stock tumors were maintained as serial s.c. passages of fragments in CD-1 Nu/Nu female mice (HCT 116 and SK-OV-3) or CB17 SCID female mice (MIA-PaCa-2). Treatments were administered orally and were initiated against established tumors. Tumor dimensions were measured via calipers 2-3 times per week and were converted into tumor mass by the formula […], where L and W refer to the largest and smallest dimensions, respectively.

[4] = test system: NCI-H460 lung (mutant k-Ras) xenograft; assay: Tumor treatment, NCI-H460 xenograft model; assay type: in vivo; settings: p.o., qd×14
Method: as §1

phospho-ERK = assay: Immunohistochemical staining of tumor sections with anti-pERK antibodies (melanoma biopsies pre- and post-treatment); assay type: in vivo, human; settings: subject having melanoma, 600 mg BID; post- vs pre-treatment biopsy
From the text: 3. Immunohistochemical Staining of Tumor Sections with Anti-pERK Antibodies
Activated Raf kinase phosphorylates and activates MEK (mitogen-activated protein kinase kinase), which in turn phosphorylates and activates ERK (extracellular signal-regulated kinase), which translocates to the nucleus and modifies gene expression. This pathway is often aberrantly activated in tumor cells due to the presence of activated ras, mutant BRAF, or elevation of growth factor receptors. A semi-quantitative immunohistochemical method was developed to detect phosphorylated ERK (pERK) in human tumor biopsies as a patient selection biomarker for determining whether a patient will be responsive to a compound of the present invention, and also to assess its efficacy. The antibody used was a polyclonal antibody (rabbit) that detects the phosphorylation status of p44 and p42 (phospho-p44/42 MAPK (Thr202/Tyr204)) MAP kinases (ERK1 and ERK2). The procedure was accomplished as follows:
1. Tumor samples were obtained from patients. Samples were embedded in paraffin and sectioned.
2. […]
20. Each tissue section was assessed using the Bioquant TCW98 image analysis system. […]
A subject having a melanoma was treated with a compound in accordance with the present invention, and then a biopsy sample was assessed using the assay described above. […]

melanoma = assay: Response of a subject having melanoma (PET and CT scans); assay type: in vivo, human; settings: 600 mg BID
Method: A subject having a melanoma was treated with a compound in accordance with the present invention, and then a biopsy sample was assessed using the assay described above.
The subject was then administered a 600 mg BID dose of the compound.
A response to the compound was observed by comparing PET scans taken at baseline vs. the second cycle. […] This response corresponds with a decrease in the percent of nuclei expressing pERK in the post-treatment biopsy. […] The compound utilized was N-[4-chloro-3-(trifluoromethyl)phenyl]-N′-{4-[2-N-methylcarbamoyl-4-pyridyloxy]phenyl}urea.

HER2 Receptor = HER2 Receptor (Homo sapiens, UniProt P04626); settings: cellular assay, HER 1 & 2 Pathway
Sequence of HER2 Receptor (P04626 23-1255): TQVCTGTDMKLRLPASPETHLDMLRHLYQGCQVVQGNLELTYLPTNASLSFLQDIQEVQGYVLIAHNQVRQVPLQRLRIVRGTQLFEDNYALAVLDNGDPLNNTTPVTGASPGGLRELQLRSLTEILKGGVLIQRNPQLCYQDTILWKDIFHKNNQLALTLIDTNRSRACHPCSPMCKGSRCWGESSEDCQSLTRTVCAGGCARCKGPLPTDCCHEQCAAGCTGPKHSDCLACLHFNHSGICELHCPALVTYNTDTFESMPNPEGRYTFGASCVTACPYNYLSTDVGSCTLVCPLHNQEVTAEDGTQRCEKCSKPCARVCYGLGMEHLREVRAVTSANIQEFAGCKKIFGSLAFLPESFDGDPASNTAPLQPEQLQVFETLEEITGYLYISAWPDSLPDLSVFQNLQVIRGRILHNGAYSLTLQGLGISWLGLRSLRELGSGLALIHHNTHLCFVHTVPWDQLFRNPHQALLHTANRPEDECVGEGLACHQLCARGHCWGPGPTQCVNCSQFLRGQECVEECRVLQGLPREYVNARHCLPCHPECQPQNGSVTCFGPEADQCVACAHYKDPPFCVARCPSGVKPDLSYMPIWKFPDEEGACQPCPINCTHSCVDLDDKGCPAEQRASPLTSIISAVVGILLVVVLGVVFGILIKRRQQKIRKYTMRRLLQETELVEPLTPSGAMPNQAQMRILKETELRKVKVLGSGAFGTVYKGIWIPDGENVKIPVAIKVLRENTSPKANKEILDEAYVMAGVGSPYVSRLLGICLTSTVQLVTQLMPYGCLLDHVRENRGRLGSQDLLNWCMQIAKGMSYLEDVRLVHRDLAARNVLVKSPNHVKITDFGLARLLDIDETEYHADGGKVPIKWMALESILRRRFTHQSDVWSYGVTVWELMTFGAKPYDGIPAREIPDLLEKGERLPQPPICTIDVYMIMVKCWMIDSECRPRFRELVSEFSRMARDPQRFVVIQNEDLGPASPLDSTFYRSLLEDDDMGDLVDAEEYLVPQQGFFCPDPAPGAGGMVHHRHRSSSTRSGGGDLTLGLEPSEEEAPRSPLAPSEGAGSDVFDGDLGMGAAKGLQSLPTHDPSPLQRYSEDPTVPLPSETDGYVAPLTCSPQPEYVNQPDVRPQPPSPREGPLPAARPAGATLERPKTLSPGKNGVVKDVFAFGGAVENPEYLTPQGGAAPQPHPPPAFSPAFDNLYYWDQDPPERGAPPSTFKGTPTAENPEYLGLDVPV

`COc1ccc(C(F)(F)F)cc1NC(=O)Nc1ccc(Oc2ccnc(C(N)=O)c2)cc1` [Entry 14, 4-[4-({N-[2-methoxy-5-(trifluoromethyl)phenyl]carbamoyl}amino)phenoxy]pyridine-2-carboxamide] showed a melting point of 114 to 117 °C.

In the case of `CNC(=O)c1cc(Oc2ccc(NC(=O)Nc3cc(C(F)(F)F)ccc3OC)c(C)c2)ccn1` [Entry 16, {4-[4-({N-[2-methoxy-5-(trifluoromethyl)phenyl]carbamoyl}amino)-3-methylphenoxy](2-pyridyl)}-N-methylcarboxamide], the melting point is reported as 210 to 213 °C.

In the case of `CNC(=O)c1cc(Oc2ccc(NC(=O)Nc3cc(C(F)(F)F)ccc3OC)c(Cl)c2)ccn1` [Entry 17, ({2-chloro-4-[2-(N-methylcarbamoyl)(4-pyridyloxy)]phenyl}amino)-N-[2-methoxy-5-(trifluoromethyl)phenyl]carboxamide], the melting point is reported as 187 to 188 °C.

With `CCNC(=O)c1cc(Oc2ccc(NC(=O)Nc3cc(C(F)(F)F)ccc3OC)cc2)ccn1` [Entry 19, ({4-[2-(N-ethylcarbamoyl)(4-pyridyloxy)]phenyl}amino)-N-[2-methoxy-5-(trifluoromethyl)phenyl]carboxamide] the melting point was 194 to 196 °C.

Compound `CNC(=O)c1cc(Oc2ccc(NC(=O)Nc3cc(C(F)(F)F)ccc3OC)cc2Cl)ccn1` [Entry 20, ({3-chloro-4-[2-(N-methylcarbamoyl)(4-pyridyloxy)]phenyl}amino)-N-[2-methoxy-5-(trifluoromethyl)phenyl]carboxamide] has a melting point of 214 to 216 °C.

Work on `CNC(=O)c1cc(Sc2ccc(NC(=O)Nc3cc(C(F)(F)F)ccc3OC)cc2)ccn1` [Entry 27, N-[2-methoxy-5-(trifluoromethyl)phenyl]({4-[2-(N-methylcarbamoyl)(4-pyridylthio)]phenyl}amino)carboxamide] yielded a melting point of 218 to 219 °C.

With `CNC(=O)c1cc(Oc2ccc(NC(=O)Nc3ccc(Cl)c(C(F)(F)F)c3)c(Cl)c2)ccn1` [Entry 49, {4-[3-chloro-4-({[4-chloro-3-(trifluoromethyl)phenyl]amino}carbonylamino)phenoxy](2-pyridyl)}-N-methylcarboxamide] the melting point was 147 to 151 °C.

`CCNC(=O)c1cc(Oc2ccc(NC(=O)Nc3ccc(Cl)c(C(F)(F)F)c3)cc2)ccn1` [Entry 51, N-[4-chloro-3-(trifluoromethyl)phenyl]({4-[2-(N-ethylcarbamoyl)(4-pyridyloxy)]phenyl}amino)carboxamide] gave a melting point of 187 to 189 °C.

With `CNC(=O)c1cc(Oc2ccc(NC(=O)Nc3ccc(Br)c(C(F)(F)F)c3)cc2Cl)ccn1` [Entry 87, {4-[4-({[4-bromo-3-(trifluoromethyl)phenyl]amino}carbonylamino)-2-chlorophenoxy](2-pyridyl)}-N-methylcarboxamide] the melting point was 217 to 219 °C.

Work on `CCNC(=O)c1cc(Oc2ccc(NC(=O)Nc3ccc(Br)c(C(F)(F)F)c3)cc2)ccn1` [Entry 88, N-[4-bromo-3-(trifluoromethyl)phenyl]({4-[2-(N-ethylcarbamoyl)(4-pyridyloxy)]phenyl}amino)carboxamide] yielded a melting point of 183 to 184 °C.

`CNC(=O)c1cc(Oc2ccc(NC(=O)Nc3cc(C(F)(F)F)c(Cl)cc3OC)cc2)ccn1` [Entry 95, N-[4-chloro-2-methoxy-5-(trifluoromethyl)phenyl]({4-[2-(N-methylcarbamoyl)(4-pyridyloxy)]phenyl}amino)carboxamide] gave a melting point of 140 to 144 °C.

In the case of `CNC(=O)c1cc(Oc2ccc(NC(=O)Nc3cc(C(F)(F)F)c(Cl)cc3OC)c(Cl)c2)ccn1` [Entry 96, N-[4-chloro-2-methoxy-5-(trifluoromethyl)phenyl]({2-chloro-4-[2-(N-methylcarbamoyl)(4-pyridyloxy)]phenyl}amino)carboxamide], the melting point is reported as 244 to 245 °C.

`CNC(=O)c1cc(Oc2ccc(NC(=O)Nc3cc(C(F)(F)F)c(Cl)cc3OC)cc2Cl)ccn1` [Entry 97, N-[4-chloro-2-methoxy-5-(trifluoromethyl)phenyl]({3-chloro-4-[2-(N-methylcarbamoyl)(4-pyridyloxy)]phenyl}amino)carboxamide] gave a melting point of 220 to 221 °C.

Compound `CCNC(=O)c1cc(Oc2ccc(NC(=O)Nc3cc(C(F)(F)F)c(Cl)cc3OC)cc2)ccn1` [Entry 99, N-[4-chloro-2-methoxy-5-(trifluoromethyl)phenyl]({4-[2-(N-ethylcarbamoyl)(4-pyridyloxy)]phenyl}amino)carboxamide] has a melting point of 180 to 181 °C.

With `CNC(=O)c1cc(Oc2ccc(NC(=O)Nc3ccc(Cl)c(C(F)(F)F)c3)cc2)ccn1` [N-[4-chloro-3-(trifluoromethyl)phenyl]-N′-{4-[2-N-methylcarbamoyl-4-pyridyloxy]phenyl}urea] the IC50 [1] was 80 nM, the IC50 [2] was 880 nM and the IC50 (c-KIT phosphor-AKT) was 402 nM. The “growth of MIA PaCa-2 tumors inhibited” value ([3]; 10 mg/kg/dose) was 44%, the “growth of MIA PaCa-2 tumors inhibited” value ([3]; 30 mg/kg/dose) was 66% and the “growth of MIA PaCa-2 tumors inhibited” value ([3]; 100 mg/kg/dose) was 73%. The “growth of NCI-H460 tumors inhibited” value ([4]; 10 mg/kg/dose) was 27%, the “growth of NCI-H460 tumors inhibited” value ([4]; 30 mg/kg/dose) was 56% and the “percent of nuclei expressing pERK in the post-treatment biopsy” value (phospho-ERK) was “decrease”. The “PET scan metabolic activity after treatment” value (melanoma; baseline vs. second cycle) was “completely silent”, the “CT scan measurements by RECIST” value (melanoma; through cycle 6 of treatment) was “stable disease” and the “IC50 (nM)” value (HER2 Receptor) was “INACTIVE”.
